For three compounds, Activity results are on record in ChEMBL document CHEMBL5715954, “Silencing c-Myc translation as a therapeutic strategy through targeting PI3Kδ and CK1ε in hematological malignancies” (Blood, 2017).

Holding throughout (set-up): scale not given: the % may be the effect or the level left
For assay [1], the target named is T1, Cytoplasmic tyrosine-protein kinase BMX (Homo sapiens) (UniProt P51813).
T1 sequence (whole entry): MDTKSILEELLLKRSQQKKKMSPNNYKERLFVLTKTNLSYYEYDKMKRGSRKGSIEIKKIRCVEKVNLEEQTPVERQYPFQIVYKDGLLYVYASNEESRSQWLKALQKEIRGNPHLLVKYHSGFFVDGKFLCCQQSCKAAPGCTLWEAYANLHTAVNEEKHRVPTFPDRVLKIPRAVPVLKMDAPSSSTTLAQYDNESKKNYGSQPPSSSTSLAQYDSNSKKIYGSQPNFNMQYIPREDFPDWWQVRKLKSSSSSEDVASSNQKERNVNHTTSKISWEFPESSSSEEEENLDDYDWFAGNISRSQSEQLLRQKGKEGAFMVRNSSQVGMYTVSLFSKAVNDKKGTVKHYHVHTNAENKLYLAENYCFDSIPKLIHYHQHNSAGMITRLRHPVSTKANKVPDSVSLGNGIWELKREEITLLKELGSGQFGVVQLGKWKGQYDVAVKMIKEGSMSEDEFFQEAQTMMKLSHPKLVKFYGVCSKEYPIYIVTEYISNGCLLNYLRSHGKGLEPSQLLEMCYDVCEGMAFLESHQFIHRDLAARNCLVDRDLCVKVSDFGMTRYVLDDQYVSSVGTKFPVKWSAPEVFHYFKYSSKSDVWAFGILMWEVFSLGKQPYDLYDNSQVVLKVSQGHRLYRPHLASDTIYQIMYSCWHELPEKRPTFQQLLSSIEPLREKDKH
In words: Inhibition of human BMX assessed as enzyme activity at 1 uM using poly[Glu:Tyr] (4:1) as substrate preincubated for 20 mins followed by [gamma-33P]-ATP addition and measured after 120 mins by radiometric Hot-SpotSM Kinase assay relative to control.

For assay [2], the target named is T2, Serine/threonine-protein kinase BRSK1 (Homo sapiens) (UniProt Q8TDC3).
T2 sequence (whole entry): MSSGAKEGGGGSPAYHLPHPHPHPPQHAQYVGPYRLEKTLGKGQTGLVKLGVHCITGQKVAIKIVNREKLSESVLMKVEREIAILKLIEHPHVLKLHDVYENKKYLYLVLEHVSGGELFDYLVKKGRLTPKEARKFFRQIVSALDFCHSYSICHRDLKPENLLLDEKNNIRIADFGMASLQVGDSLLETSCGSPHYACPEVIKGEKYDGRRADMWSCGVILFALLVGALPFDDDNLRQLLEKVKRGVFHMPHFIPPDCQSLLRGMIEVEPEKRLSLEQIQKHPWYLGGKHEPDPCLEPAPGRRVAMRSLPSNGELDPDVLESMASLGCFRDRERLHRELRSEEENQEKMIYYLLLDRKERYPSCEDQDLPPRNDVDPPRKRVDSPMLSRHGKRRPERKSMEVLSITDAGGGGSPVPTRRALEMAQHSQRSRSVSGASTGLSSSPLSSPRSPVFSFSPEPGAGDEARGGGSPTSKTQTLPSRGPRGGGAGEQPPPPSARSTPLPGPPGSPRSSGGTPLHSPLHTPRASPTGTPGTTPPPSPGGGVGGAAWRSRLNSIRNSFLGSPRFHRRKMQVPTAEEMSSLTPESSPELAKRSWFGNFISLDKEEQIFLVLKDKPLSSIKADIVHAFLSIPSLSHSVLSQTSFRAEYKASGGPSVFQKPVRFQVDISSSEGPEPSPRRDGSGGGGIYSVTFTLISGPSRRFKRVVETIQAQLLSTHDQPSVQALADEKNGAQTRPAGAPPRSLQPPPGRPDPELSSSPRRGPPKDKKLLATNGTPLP
In words: Inhibition of human BRSK1 assessed as enzyme activity at 1 uM using KKKVSRSGLYRSPSMPENLNRPR as substrate preincubated for 20 mins followed by [gamma-33P]-ATP addition and measured after 120 mins by radiometric Hot-SpotSM Kinase assay relative to control.

Assay [3] addresses Calcium/calmodulin-dependent protein kinase type II subunit alpha (Homo sapiens) (UniProt Q9UQM7). In words: Inhibition of human CAMK2a assessed as enzyme activity at 1 uM using KKALRRQETVDAL as substrate preincubated for 20 mins followed by [gamma-33P]-ATP addition and measured after 120 mins by radiometric Hot-SpotSM Kinase assay relative to control.
The target of assay [4] is Mitogen-activated protein kinase kinase kinase 1 (Homo sapiens) (UniProt Q13233). In words: Inhibition of human MEKK1 assessed as enzyme activity at 1 uM using myelin basic protein as substrate preincubated for 20 mins followed by [gamma-33P]-ATP addition and measured after 120 mins by radiometric Hot-SpotSM Kinase assay relative to control.
Mitogen-activated protein kinase kinase kinase 1 (Homo sapiens), sequence (Q13233 whole entry): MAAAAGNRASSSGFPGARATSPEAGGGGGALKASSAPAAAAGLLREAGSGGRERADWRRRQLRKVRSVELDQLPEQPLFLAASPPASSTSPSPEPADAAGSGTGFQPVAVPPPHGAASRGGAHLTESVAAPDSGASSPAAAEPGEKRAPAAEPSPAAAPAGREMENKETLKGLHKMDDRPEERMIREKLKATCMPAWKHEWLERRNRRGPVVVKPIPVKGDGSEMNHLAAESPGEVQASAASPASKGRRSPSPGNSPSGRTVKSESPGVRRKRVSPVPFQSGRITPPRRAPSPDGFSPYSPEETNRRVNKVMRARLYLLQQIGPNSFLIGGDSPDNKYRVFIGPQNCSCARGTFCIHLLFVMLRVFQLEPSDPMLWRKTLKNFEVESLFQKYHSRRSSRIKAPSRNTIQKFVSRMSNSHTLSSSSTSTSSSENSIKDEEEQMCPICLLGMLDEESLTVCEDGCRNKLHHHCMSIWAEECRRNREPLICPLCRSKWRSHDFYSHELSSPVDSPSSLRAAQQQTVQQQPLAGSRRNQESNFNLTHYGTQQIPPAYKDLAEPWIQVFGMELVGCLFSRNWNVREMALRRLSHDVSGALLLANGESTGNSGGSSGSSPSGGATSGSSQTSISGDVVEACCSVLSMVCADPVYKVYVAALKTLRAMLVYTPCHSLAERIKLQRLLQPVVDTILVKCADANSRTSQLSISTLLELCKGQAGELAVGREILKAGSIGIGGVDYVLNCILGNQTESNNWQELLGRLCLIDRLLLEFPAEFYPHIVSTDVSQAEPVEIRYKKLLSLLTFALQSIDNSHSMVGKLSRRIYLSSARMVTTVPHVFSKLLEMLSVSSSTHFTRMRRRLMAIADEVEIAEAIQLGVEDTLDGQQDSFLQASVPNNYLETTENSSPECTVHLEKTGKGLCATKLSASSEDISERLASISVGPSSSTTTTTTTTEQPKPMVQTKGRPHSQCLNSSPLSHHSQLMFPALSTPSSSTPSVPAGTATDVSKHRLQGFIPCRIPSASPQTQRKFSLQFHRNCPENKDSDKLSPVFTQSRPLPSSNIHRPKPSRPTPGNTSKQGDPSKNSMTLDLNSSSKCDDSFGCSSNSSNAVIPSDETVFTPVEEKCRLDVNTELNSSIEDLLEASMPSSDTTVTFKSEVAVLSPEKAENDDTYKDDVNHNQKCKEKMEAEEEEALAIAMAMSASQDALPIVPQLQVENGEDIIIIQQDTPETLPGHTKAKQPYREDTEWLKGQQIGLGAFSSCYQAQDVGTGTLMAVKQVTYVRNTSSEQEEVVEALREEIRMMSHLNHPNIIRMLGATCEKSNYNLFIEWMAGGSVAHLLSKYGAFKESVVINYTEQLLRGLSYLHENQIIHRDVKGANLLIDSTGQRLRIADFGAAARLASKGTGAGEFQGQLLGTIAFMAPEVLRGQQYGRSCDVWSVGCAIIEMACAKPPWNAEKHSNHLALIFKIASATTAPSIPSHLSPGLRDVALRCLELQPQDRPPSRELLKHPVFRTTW
In assay [5] the target is T3, Dual specificity mitogen-activated protein kinase kinase 6 (Homo sapiens) (UniProt P52564).
T3 sequence (whole entry): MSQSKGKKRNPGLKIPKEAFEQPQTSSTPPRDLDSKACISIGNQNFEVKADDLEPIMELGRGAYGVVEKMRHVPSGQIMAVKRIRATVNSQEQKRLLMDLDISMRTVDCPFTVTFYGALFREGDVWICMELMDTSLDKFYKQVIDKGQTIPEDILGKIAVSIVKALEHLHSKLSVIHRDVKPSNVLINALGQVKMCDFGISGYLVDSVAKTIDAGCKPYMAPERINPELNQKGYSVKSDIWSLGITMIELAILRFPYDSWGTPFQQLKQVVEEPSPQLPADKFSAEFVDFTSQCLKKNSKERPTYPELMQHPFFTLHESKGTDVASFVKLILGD
In words: Inhibition of human MKK6 assessed as enzyme activity at 1 uM using p38a (K53A) as substrate preincubated for 20 mins followed by [gamma-33P]-ATP addition and measured after 120 mins by radiometric Hot-SpotSM Kinase assay relative to control.

Assay [6] deals with T4, Mitogen-activated protein kinase 12 (Homo sapiens) (UniProt P53778).
T4 sequence (whole entry): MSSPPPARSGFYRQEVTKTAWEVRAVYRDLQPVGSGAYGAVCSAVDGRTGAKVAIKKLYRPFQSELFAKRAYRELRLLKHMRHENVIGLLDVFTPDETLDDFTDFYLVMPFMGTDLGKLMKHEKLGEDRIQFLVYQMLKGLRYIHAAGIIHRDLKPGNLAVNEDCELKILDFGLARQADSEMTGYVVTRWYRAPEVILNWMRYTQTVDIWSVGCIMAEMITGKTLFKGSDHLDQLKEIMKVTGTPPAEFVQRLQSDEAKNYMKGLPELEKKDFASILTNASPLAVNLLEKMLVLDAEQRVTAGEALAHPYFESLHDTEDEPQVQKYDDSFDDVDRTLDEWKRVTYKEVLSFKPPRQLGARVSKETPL
In words: Inhibition of human P38g assessed as enzyme activity at 1 uM using myelin basic protein as substrate preincubated for 20 mins followed by [gamma-33P]-ATP addition and measured after 120 mins by radiometric Hot-SpotSM Kinase assay relative to control.

For assay [7], the target named is Serine/threonine-protein kinase PAK 2 (Homo sapiens) (UniProt Q13177). In words: Inhibition of human PAK2 assessed as enzyme activity at 1 uM using RRRLSFAEPG as substrate preincubated for 20 mins followed by [gamma-33P]-ATP addition and measured after 120 mins by radiometric Hot-SpotSM Kinase assay relative to control.
Serine/threonine-protein kinase PAK 2 (Homo sapiens), sequence (Q13177 whole entry): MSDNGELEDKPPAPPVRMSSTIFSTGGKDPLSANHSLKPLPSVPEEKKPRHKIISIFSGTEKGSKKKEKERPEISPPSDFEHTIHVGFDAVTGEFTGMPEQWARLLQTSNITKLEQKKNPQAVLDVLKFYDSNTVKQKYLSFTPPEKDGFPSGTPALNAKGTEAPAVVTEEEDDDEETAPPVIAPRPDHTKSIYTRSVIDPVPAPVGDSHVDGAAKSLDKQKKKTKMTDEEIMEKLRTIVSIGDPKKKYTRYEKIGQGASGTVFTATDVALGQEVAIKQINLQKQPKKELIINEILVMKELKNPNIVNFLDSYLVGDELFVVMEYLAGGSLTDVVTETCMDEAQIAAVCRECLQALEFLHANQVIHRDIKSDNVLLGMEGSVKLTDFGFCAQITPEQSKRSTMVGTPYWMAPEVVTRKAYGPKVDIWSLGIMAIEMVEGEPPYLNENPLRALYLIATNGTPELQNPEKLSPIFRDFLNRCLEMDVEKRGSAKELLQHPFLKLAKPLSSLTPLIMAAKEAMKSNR

Calcium/calmodulin-dependent protein kinase type II subunit alpha (Homo sapiens), sequence (Q9UQM7 whole entry): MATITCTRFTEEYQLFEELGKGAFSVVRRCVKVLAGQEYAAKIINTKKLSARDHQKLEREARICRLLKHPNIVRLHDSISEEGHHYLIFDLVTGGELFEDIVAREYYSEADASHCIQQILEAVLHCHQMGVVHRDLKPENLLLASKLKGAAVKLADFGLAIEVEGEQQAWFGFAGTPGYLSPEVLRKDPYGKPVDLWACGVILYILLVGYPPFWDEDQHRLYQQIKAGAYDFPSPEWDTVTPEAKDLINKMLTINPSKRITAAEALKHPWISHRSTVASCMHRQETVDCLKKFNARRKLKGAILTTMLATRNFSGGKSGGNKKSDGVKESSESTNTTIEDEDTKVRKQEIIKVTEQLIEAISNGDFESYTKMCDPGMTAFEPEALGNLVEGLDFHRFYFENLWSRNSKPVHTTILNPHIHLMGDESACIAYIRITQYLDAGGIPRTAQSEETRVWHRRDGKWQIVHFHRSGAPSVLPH

Turning to `C[C@H](Nc1ncnc2nc[nH]c12)c1cc2cccc(Cl)c2c(=O)n1-c1ccccc1`, the Activity was determined as 86.4% in assay [1]; 92.5% in assay [2]; 95.4% in assay [3]; 107% in assay [4]; 86.2% in assay [5]; 98.2% in assay [6]. In addition, in assay [7], the Activity was 100%.

Regarding `CC[C@H](Nc1ncnc2[nH]cnc12)c1nc2cccc(F)c2c(=O)n1-c1ccccc1`, the Activity in assay [1] came to 87.8%; in assay [2] it was 89.1%; in assay [3] it was 101%; in assay [4] it was 101%; in assay [5], 87.2%; in assay [6] it was 96.8%. Also, the Activity in assay [7] was 103%.

On to `CC(C)Oc1ccc(-c2nn([C@@H](C)c3oc4ccc(F)cc4c(=O)c3-c3cccc(F)c3)c3ncnc(N)c23)cc1F` [UMBRALISIB], for which the Activity stood at 87.3% in assay [1]; 87.9% in assay [2]; 100% in assay [3]; 101% in assay [4]; 87.8% in assay [5]; 96.4% in assay [6]. Further, the Activity in assay [7] turned out to be 96.8%.
